Measurements taken from US20050101595A1, “N-containing cycloalkyl-substituted amino-thiazole derivatives and pharmaceutical compositions for inhibiting cell proliferation and methods for their use” (PFIZER INC., priority 2003, published 2005).
Where a name gives a salt, the structure may show the parent alone. Read-outs that look alike come from different tables or passages of the source. Each block holds one molecule with its values, some of them ahead of it.

Columns and labels:
[1] = molecular target: human CDK4 and genetically truncated (1-264) cyclin D3 (Homo sapiens, UniProt P11802); experiment: Inhibition of CDK4/Cyclin D Retinoblastoma Kinase Activity; format: biochemical; details: for Ki: apparent Ki, CDK4/truncated cyclin D3, Rb fragment substrate, 25 μM ATP
How it was run: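 Apparent Ki values derive from fitting activity at varied inhibitor concentrations to a competitive (or competitive tight-binding) model. Kinase reactions used 5 nM CDK4/cyclin D3(1-264), Rb fragment substrate and 25 μM ATP. Incubation ran 20 min at 30 °C, extended to 60 min under linear conditions for tight binders.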

HCT-116 cell line = experiment: Inhibition of cell growth, tetrazolium salt (MTT) assay; format: cell-based; details: for IC50: Homo sapiens, HCT-116, 120 h, MTT, three to five days; for HCT-116 % Inhibition at 0.25 μM: 0.25 μM compound
How it was run: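 HCT-116 cells in McCoy's 5A medium received compound 4 h after plating (0.5% v/v DMSO) and were incubated three to five days at 37° C, 5% CO2. MTT (0.2 mg/mL final) then added for 4 h; DMSO-solubilized formazan read at 540 nm against 0.5% DMSO-treated controls.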

CDK2/Cyclin A = CDK2/Cyclin A (Homo sapiens, UniProt P24941); experiment: Inhibition of CDK2/Cyclin A Retinoblastoma Kinase Activity; format: biochemical; details: for Ki: apparent Ki, CDK2/proteolyzed cyclin A, Rb fragment substrate, 25 μM ATP
How it was run: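 Percent inhibition is calculated against DMSO-only wells after subtracting no-enzyme background. The enzyme is human CDK2 complexed with proteolyzed cyclin A, used at 10 nM or 19 nM on an Rb fragment with 25 μM [32/33P]ATP, at pH 7.4 and 30° C.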

[2] = first HCT-116 column (c4), read-out: HCT-116 IC50
[3] = second HCT-116 column (c5), read-out: HCT-116 IC50
[4] = 0.1 μM compound, HCT-116, Table 4
[5] = 0.1 μM compound, HCT-116, Table 3

human CDK4 and genetically truncated (1-264) cyclin D3, sequence (P11802 whole entry, the tested form may be a part): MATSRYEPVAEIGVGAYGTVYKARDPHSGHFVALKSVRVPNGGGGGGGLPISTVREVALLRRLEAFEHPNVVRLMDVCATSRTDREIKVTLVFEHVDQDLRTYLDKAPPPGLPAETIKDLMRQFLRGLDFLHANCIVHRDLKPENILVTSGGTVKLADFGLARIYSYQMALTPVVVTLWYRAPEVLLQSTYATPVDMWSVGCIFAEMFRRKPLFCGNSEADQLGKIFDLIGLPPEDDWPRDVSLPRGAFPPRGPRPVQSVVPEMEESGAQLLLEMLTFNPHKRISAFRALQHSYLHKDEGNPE
human CDK4 and genetically truncated (1-264) cyclin D3, sequence (P30281 1-264 partner): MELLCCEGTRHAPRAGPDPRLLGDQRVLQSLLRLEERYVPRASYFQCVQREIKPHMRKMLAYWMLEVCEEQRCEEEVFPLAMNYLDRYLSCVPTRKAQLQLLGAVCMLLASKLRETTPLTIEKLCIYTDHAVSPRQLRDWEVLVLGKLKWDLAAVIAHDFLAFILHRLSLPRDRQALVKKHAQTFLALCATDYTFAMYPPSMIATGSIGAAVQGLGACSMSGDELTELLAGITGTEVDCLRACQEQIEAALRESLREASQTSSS

SMILES: Nc1nc(NC2CCN(C(=O)c3cccnc3Oc3ccccc3)CC2)sc1C(=O)c1c(F)cccc1F [Example R27]
CDK4 % Inhibition at 0.03 μM ([1]; at 0.03 μM): 19%
HCT-116 % Inhibition at 0.1 μM (HCT-116 cell line; HCT-116 cells, at 0.1 μM): 0%
HCT-116 5 Inhibition at 0.25 μM (HCT-116 cell line; HCT-116 cells): 43
CDK2 % Inhibition at 0.03 μM (CDK2/Cyclin A; at 0.03 μM): 6%

SMILES: Cc1onc(-c2ccccc2)c1C(=O)N1CCC(Nc2nc(N)c(C(=O)c3c(F)cccc3F)s2)CC1 [Example R21]
CDK4 % Inhibition at 0.03 μM ([1]; at 0.03 μM): 38%
HCT-116 % Inhibition at 0.1 μM (HCT-116 cell line; HCT-116 cells, at 0.1 μM): 0%
HCT-116 5 Inhibition at 0.25 μM (HCT-116 cell line; HCT-116 cells): 47
CDK2 % Inhibition at 0.03 μM (CDK2/Cyclin A; at 0.03 μM): 2%

SMILES: CCC(C(=O)N1CCC(Nc2nc(N)c(C(=O)c3c(F)cccc3F)s2)CC1)c1ccccc1 (stereo not drawn) [Example R163]
CDK4 % Inhibition at 0.03 μM ([1]; at 0.03 μM): 28%
HCT-116 % Inhibition at 0.1 μM (HCT-116 cell line; HCT-116 cells, at 0.1 μM): 0%
HCT-116 5 Inhibition at 0.25 μM (HCT-116 cell line; HCT-116 cells): 44
CDK2 % Inhibition at 0.03 μM (CDK2/Cyclin A; at 0.03 μM): 26%

SMILES: Nc1nc(NC2CCN(C(=O)COc3ccccc3)CC2)sc1C(=O)c1c(F)cccc1F [Example Q41]
CDK4 % Inhibition at 0.03 μM ([1]; 0.03 μM compound, Table 4): 36%
HCT-116 % Inhibition at 0.1 μM (HCT-116 cell line; [4]): 3%
HCT-116 % Inhibition at 0.25 μM (HCT-116 cell line; HCT-116, Table 4): 15%
CDK2 % Inhibition at 0.03 μM (CDK2/Cyclin A; 0.03 μM compound, Table 4): 24%

SMILES: Nc1nc(NC2CCN(C(=O)c3ccc(F)cc3)CC2)sc1C(=O)c1c(F)cccc1F [Example R143]
CDK4 % Inhibition at 0.03 μM ([1]; at 0.03 μM): 59%
HCT-116 % Inhibition at 0.1 μM (HCT-116 cell line; HCT-116 cells, at 0.1 μM): 0%
HCT-116 5 Inhibition at 0.25 μM (HCT-116 cell line; HCT-116 cells): 40
CDK2 % Inhibition at 0.03 μM (CDK2/Cyclin A; at 0.03 μM): 30%

SMILES: Nc1nc(NC2CCN(C(=O)c3cc([N+](=O)[O-])cc([N+](=O)[O-])c3)CC2)sc1C(=O)c1c(F)cccc1F [Example Q70]
CDK4 % Inhibition at 0.03 μM ([1]; 0.03 μM compound, Table 4): 38%
HCT-116 % Inhibition at 0.1 μM (HCT-116 cell line; [4]): 5%
HCT-116 % Inhibition at 0.25 μM (HCT-116 cell line; HCT-116, Table 4): 26%
CDK2 % Inhibition at 0.03 μM (CDK2/Cyclin A; 0.03 μM compound, Table 4): 19%

SMILES: COC(=O)CCC(=O)N1CCC(Nc2nc(N)c(C(=O)c3c(F)cccc3F)s2)CC1 [Example Q49]
CDK4 % Inhibition at 0.03 μM ([1]; 0.03 μM compound, Table 4): 24%
HCT-116 % Inhibition at 0.1 μM (HCT-116 cell line; [4]): 0%
HCT-116 % Inhibition at 0.25 μM (HCT-116 cell line; HCT-116, Table 4): 28%
CDK2 % Inhibition at 0.03 μM (CDK2/Cyclin A; 0.03 μM compound, Table 4): 16%

SMILES: Nc1nc(NC2CCN(Cc3ccccc3)CC2)sc1C(=O)c1c(F)cccc1F [Example A3, 1-[4-Amino-2-(1-benzyl-piperidin-4-ylamino)-thiazol-5-yl]-1-(2,6-difluoro-phenyl)-methanone]
Ki [1]: 130 nM
IC50 (HCT-116 cell line; [2]): 1700 nM
IC50 (HCT-116 cell line; [3]): 3100 nM
Ki (CDK2/Cyclin A): 490 nM

SMILES: Nc1nc(NC2CCN(C(=O)Oc3ccc([N+](=O)[O-])cc3)CC2)sc1C(=O)c1c(F)cccc1F [Example C16, 4-[4-Amino-5-(2,6-difluoro-benzoyl)-thiazol-2-ylamino]-piperidine-1-carboxylic acid 4-nitro-phenyl ester]
Ki [1]: 7.5 nM
IC50 (HCT-116 cell line; read-out: HCT-116 IC50, first HCT-116 column (c4)): 130 nM
IC50 (HCT-116 cell line; read-out: HCT-116 IC50, second HCT-116 column (c5)): 400 nM
Ki (CDK2/Cyclin A): 18 nM

SMILES: COC(=O)CCCCC(=O)N1CCC(Nc2nc(N)c(C(=O)c3c(F)cccc3F)s2)CC1 [Example R4]
CDK4 % Inhibition at 0.03 μM ([1]; at 0.03 μM): 32%
HCT-116 % Inhibition at 0.1 μM (HCT-116 cell line; HCT-116 cells, at 0.1 μM): 3%
HCT-116 5 Inhibition at 0.25 μM (HCT-116 cell line; HCT-116 cells): 47
CDK2 % Inhibition at 0.03 μM (CDK2/Cyclin A; at 0.03 μM): −5%

SMILES: Cc1ccc(NC(=O)N2CCC(Nc3nc(N)c(C(=O)c4c(F)cccc4F)s3)CC2)c(C)c1 [Example O41]
CDK4 % Inhibition at 0.03 μM ([1]; 0.03 μM compound, Table 2): 1%
HCT-116 % Inhibition at 0.25 μM (HCT-116 cell line; HCT-116, Table 2): 26%
CDK2 % Inhibition At 0.03 μM (CDK2/Cyclin A; 0.03 μM compound, Table 2): 33%

SMILES: CN(C)c1cccc2c(S(=O)(=O)N3CCC(Nc4nc(N)c(C(=O)c5c(F)cccc5F)s4)CC3)cccc12 [Example P2]
CDK4 % Inhibition at 0.03 μM ([1]; 0.03 μM compound, Table 3): 69%
HCT-116 % Inhibition at 0.1 μM (HCT-116 cell line; [5]): 15%
HCT-116 % Inhibition at 0.25 μM (HCT-116 cell line; HCT-116, Table 3): 24%
CDK2 % Inhibition at 0.03 μM (CDK2/Cyclin A; 0.03 μM compound, Table 3): 43%

SMILES: CC12CCC(C(=O)N3CCC(Nc4nc(N)c(C(=O)c5c(F)cccc5F)s4)CC3)(OC1=O)C2(C)C (stereo not drawn) [Example R67]
CDK4 % Inhibition at 0.03 μM ([1]; at 0.03 μM): 22%
HCT-116 % Inhibition at 0.1 μM (HCT-116 cell line; HCT-116 cells, at 0.1 μM): 4%
HCT-116 5 Inhibition at 0.25 μM (HCT-116 cell line; HCT-116 cells): 40
CDK2 % Inhibition at 0.03 μM (CDK2/Cyclin A; at 0.03 μM): 11%

The next lines start with results.

Ki [1]: 1.8 nM
IC50 (HCT-116 cell line; [2]): 130 nM
IC50 (HCT-116 cell line; [3]): 1300 nM
Ki (CDK2/Cyclin A): 2.9 nM
SMILES: Nc1nc(NC2CCN(S(=O)(=O)CCCN3CC=CCC3)CC2)sc1C(=O)c1c(F)cccc1F [Example K11, 1-(4-Amino-2-{1-[3-(3,6-dihydro-2H-pyridin-1-yl)propane-1-sulfonyl]-piperidin-4-ylamino}-thiazol-5-yl)-1-(2,6-difluoro-phenyl)-methanone.]

Ki [1]: 170 nM
IC50 (HCT-116 cell line; [2]): > 5000 nM
IC50 (HCT-116 cell line; [3]): > 5000 nM
Ki (CDK2/Cyclin A): 38 nM
SMILES: CC(C)OC(=O)NS(=O)(=O)N1CCC(Nc2nc(N)c(C(=O)c3c(F)cccc3F)s2)CC1 [Example E5, [1-(4-{4-Amino-5-[1-(2,6-difluoro-phenyl)-methanoyl]-thiazol-2-ylamino}-piperidin-1-yl)-sulfonyl]-carbamic Acid Isopropyl Ester]

Ki [1]: 1.3 nM
IC50 (HCT-116 cell line; [2]): 22 nM
IC50 (HCT-116 cell line; [3]): 80 nM
Ki (CDK2/Cyclin A): 0.37 nM
SMILES: CN1CCC[C@@H](Oc2ccc(S(=O)(=O)N3CCC(Nc4nc(N)c(C(=O)c5c(F)cccc5F)s4)CC3)cn2)C1 [Example H26, (4-Amino-2-{1-[6-(1-methyl-piperidin-3R-yloxy)-pyridine-3-sulfonyl]-piperidin-4-ylamino}-thiazol-5-yl)-(2,6-difluoro-phenyl)-methanone Hydrochloride]

Ki [1]: 1.2 nM
IC50 (HCT-116 cell line; [2]): 280 nM
IC50 (HCT-116 cell line; [3]): > 500 nM
Ki (CDK2/Cyclin A): 0.49 nM
SMILES: Nc1nc(NC2CCN(S(=O)(=O)c3ccc(N4CCCC(O)C4)nc3)CC2)sc1C(=O)c1c(F)cccc1F (stereo not drawn) [Example G12, 1-{4-Amino-2-[1-(3-hydroxy-3,4,5,6-tetrahydro-2H-[1,2′]bipyridinyl-5′-sulfonyl)-piperidin-4-ylamino]-thiazol-5-yl}-1-(2,6-difluoro-phenyl)-methanone Trifluoroacetic Acid Salt]

Ki [1]: 0.52 nM
IC50 (HCT-116 cell line; [2]): 180 nM
IC50 (HCT-116 cell line; [3]): 2500 nM
Ki (CDK2/Cyclin A): 1.5 nM
SMILES: CC(C)NCCOc1ccc(S(=O)(=O)N2CCC(Nc3nc(N)c(C(=O)c4c(F)cccc4F)s3)CC2)cn1 [Example H19, (4-Amino-2-{1-[6-(2-isopropylamino-ethoxy)-pyddine-3-sulfonyl]-piperidin-4-ylamino}-thiazol-5-yl)-(2,6-difluoro-phenyl)-methanone Hydrochloride Salt]

CDK4 % Inhibition at 0.03 μM ([1]; 0.03 μM compound, Table 3): 52%
CDK2 % Inhibition at 0.03 μM (CDK2/Cyclin A; 0.03 μM compound, Table 3): 43%
SMILES: Nc1nc(NC2CCN(S(=O)(=O)c3ccc(F)cc3Cl)CC2)sc1C(=O)c1c(F)cccc1F [Example P55]
HCT-116 % Inhibition at 0.1 μM (HCT-116 cell line; [5]): 20%
HCT-116 % Inhibition at 0.25 μM (HCT-116 cell line; HCT-116, Table 3): 25%

Ki [1]: 0.26 nM
IC50 (HCT-116 cell line; [2]): 70 nM
IC50 (HCT-116 cell line; [3]): 700 nM
Ki (CDK2/Cyclin A): 0.8 nM
SMILES: Nc1nc(NC2CCN(S(=O)(=O)c3ccc(CCN4CCC[C@H]4CO)nc3)CC2)sc1C(=O)c1c(F)cccc1F [Example N9, [4-Amino-2-(1-{6-[2-(2S-hydroxymethyl-pyrrolidin-1-yl)-ethyl]-pyridine-3-sulfonyl}-piperidin-4-ylamino)-thiazol-5-yl]-(2,6-difluoro-phenyl)-methanone Hydrochloride Salt.]

Ki [1]: 5.9 nM
IC50 (HCT-116 cell line; [2]): 180 nM
IC50 (HCT-116 cell line; [3]): 480 nM
Ki (CDK2/Cyclin A): 2.9 nM
SMILES: CS(=O)(=O)N1CCC(Nc2nc(N)c(C(=O)c3c(F)cccc3F)s2)CC1 [Example F3, 1-[4-Amino-2-(1-methanesulfonyl-piperidin-4-ylamino)-thiazol-5-yl]-1-(2,6-difluoro-phenyl)-methanone]

Ki [1]: 0.3 nM
IC50 (HCT-116 cell line; [2]): 51 nM
IC50 (HCT-116 cell line; [3]): 800 nM
Ki (CDK2/Cyclin A): 1 nM
SMILES: C[C@@H]1CN(c2ncc(S(=O)(=O)N3CCC(Nc4nc(N)c(C(=O)c5c(F)cccc5F)s4)CC3)cn2)C[C@H](C)N1 [Example G33, (4-Amino-2-{1-[2-(3,5-dimethyl-piperazine-1-yl)-pyrimidine-5-sulfonyl]-piperidine-4-ylamino}-thiazol-5-yl)-(2,6-difluoro-phenyl)-methanone Hydrochloride Salt]
